Measurements from patent US12391919B2, “Culture medium, coating matrix and method for maturing midbrain dopaminergic progenitor cells” (NUWACELL BIOTECHNOLOGIES CO., LTD., priority 2022, dated 2025).

Test system: imDAPs
Test: imDAP expansion: cell morphology, cell number (Vi-cell cytometer), expansion fold, Population Doubling Time
Format: cell-based, human
Settings: for attachment and morphology of imDAPs on the coated surface: Example 8, coating 1 μg/cm^2, day 4, FIG. 4A
Method: imDAPs were produced according to the method described in CN201910169525.0. The imDAPs (P0) were seeded on VTN-coated plates (1 μg/cm^2) at a density of 1×10^5 cells/cm^2 in the expansion medium (50% DMEM/F12, 50% Neurobasal™ medium, 1% (v/v) Glutamax, 2% (v/v) B27 (50×), 0.2 μM LDN193189, 3 μM CHIR99021, 100 ng/mL FGF8b) in the absence or presence of 5 μM Blebbistatin. In case where Blebbistatin is present, Blebbistatin was either removed 24 hrs after plating or present throughout the culture period. The medium was changed every day for 5 days.
imDAPs were produced according to the method described in CN201910169525.0. The imDAPs (P0) were seeded on VTN-coated plates (1 μg/cm^2) at a density of 1×10^5 cells/cm^2 in the expansion medium (50% DMEM/F12, 50% Neurobasal™ medium, 1% (v/v) Glutamax, 2% (v/v) B27 (50×), 3 μM CHIR99021, 100 ng/mL FGF8b, […]) in the absence or presence of 0.2 μM LDN193189. The medium was changed every day for 5 days.
imDAPs were produced according to the method described in CN201910169525.0. The imDAPs (P0) were seeded on VTN-coated plates (1 μg/cm^2) at a density of 1×10^5 cells/cm^2 in the expansion medium (50% DMEM/F12, 50% Neurobasal™ medium, 1% (v/v) Glutamax, 2% (v/v) B27 (50×), 0.2 μM LDN193189, 3 μM CHIR99021, 100 ng/mL FGF8b, 5 μM Blebbistatin). The medium was changed every day. When imDAPs reach 100% confluence (4-5 days), cells were passaged enzymatically with 1× TrypLE, centrifuged at 250 g for 5 minutes, counted and replaced on new VTN-coated plates (1 μg/cm^2) at a density of 1×10^5 cells/cm^2 in the expansion medium. imDAPs were continuously expanded for 6 passages. At each passage, imDAPs were harvested at an expansion fold 5˜10 (over the initial number of imDAPs plated).
imDAPs were produced according to the method described in CN201910169525.0. The imDAPs (P0) were seeded on DLL4-coated ([…]), VTN-coated (1 μg/cm^2) and DLL4/VTN-coated ([…]) plates at a low density of 1×10^4 cells/cm^2 respectively, and cultured in the expansion medium in the absence or presence of 5 µM SB431542. Medium was replaced every 3rd day until reaching 100% confluence (6 days) for cell collection. The typical cell morphology on day 4 was recorded (FIG. 4A). The cell number of each group was counted by Vi-cell cytometer (FIG. 4B). The cells of each group were stained with Foxa2-PE antibody (BD, #561589), the percentage of Foxa2+ imDAPs were analyzed by flow cytometry (FIG. 4C). The expansion medium used in this example contained the following components: 50% DMEM/F12, 50% Neurobasal™ medium, 1% (v/v) Glutamax, 1% (v/v) B27, 50 μg/ml ascorbic acid, 0.2 μM LDN193189, 100 ng/ml FGF8b, 3 μM CHIR99021 and 10 μM Y27632.
imDAPs were produced according to the method described in CN201910169525.0. The imDAPs (P0) were seeded on DLL4/VTN-coated (1 μg/cm^2 for each) plates at a low density of 1×10^4 cells/cm^2, and cultured in the expansion medium (EM1, EM2, EM3, EM4). Medium was replaced every 3rd day until reaching 100% confluence (6 days) for cell collection. EM1 used in Example 9 contained the following components: 50% DMEM/F12, 50% Neurobasal™ medium, 1% (v/v) Glutamax, 1% (v/v) B27 (50×), […], 3 μM CHIR99021, 5 μM SB431542 and 10 μM Y27632. EM2 used in Example 9 contained the following components: 50% DMEM/F12, 50% Neurobasal™ medium, 1% (v/v) Glutamax, 1% (v/v) B27 (50×), 50 μg/ml ascorbic acid, […] LDN193189, 3 μM CHIR99021, 5 μM SB431542 and 10 μM Y27632. EM3 used in Example 9 contained the following components: 50% DMEM/F12, 50% Neurobasal™ medium, 1% (v/v) Glutamax, 1% (v/v) B27 (50×), 50 μg/mL ascorbic acid, […], 100 ng/ml FGF8b, 3 μM CHIR99021, 5 μM SB431542 and 10 μM Y27632. EM4 used in Example 9 contained the following components: 50% DMEM/F12, 50% Neurobasal™ medium, 1% (v/v) Glutamax, 1% (v/v) B27 (50×), 50 μg/ml ascorbic acid, 0.2 μM LDN193189, 10 ng/ml FGF2, 3 μM CHIR99021, 5 μM SB431542 and 10 μM Y27632. […]

Molecule | cell morphology of expanded imDAPs (Example 2, with vs without 0.2 μM LDN193189, VTN-coated plates, 5 days, FIG. 1B) | imDAP expansion (overall conclusion) (Example 9) | cell number during expansion (Example 9, added to medium with CHIR99021, SB431542 and Y27632, DLL4/VTN-coated, 6 days, FIG. 5B) | attachment and morphology of imDAPs on the coated surface
c1ccc2c(-c3cnn4cc(-c5ccc(N6CCNCC6)cc5)cnc34)ccnc2c1 [LDN193189] | cultured without LDN193189 showed more flattened morphology | had no additional effects on imDAP expansion | had no additional effect on increasing the cell number during expansion | 
DLL4: Notch agonist used as second coating matrix |  |  |  | could not support the attachment of imDAPs
VTN: vitronectin, first coating matrix that supports cell adhesion (protein, UniProt P04004 20-478, looked up) Vitronectin: DQESCKGRCTEGFNVDKKCQCDELCSYYQSCCTDYTAECKPQVTRGDVFTMPEDEYTVYDDGEEKNNATVHEQVGGPSLTSDLQAQSKGNPEQTPVLKPEEEAPAPEVGASKPEGIDSRPETLHPGRPQPPAEEELCSGKPFDAFTDLKNGSLFAFRGQYCYELDEKAVRPGYPKLIRDVWGIEGPIDAAFTRINCQGKTYLFKGSQYWRFEDGVLDPDYPRNISDGFDGIPDNVDAALALPAHSYSGRERVYFFKGKQYWEYQFQHQPSQEECEGSSLSAVFEHFAMMQRDSWEDIFELLFWGRTSAGTRQPQFISRDWHGVPGQVDAAMAGRIYISGMAPRPSLAKKQRFRHRNRKGYRSQRGHSRGRNQNSRRPSRATWLSLFSSEESNLGANNYDDYRMDWLVPATCEPIQSVFFFSGDKYYRVNLRTRRVDTVDPPYPRSIAQYWLGCPAPGHL |  |  |  | showed flattened morphology
